Test results published in patent US12606795B2 (Thankcome Biological Science and Technology (SuZhou) Co., …, priority 2023, dated 2026).
Converted amounts (≈) assume the structure as drawn.

Key:
AKK PROBIO = experiment: Drug sensitivity, agar dilution method (CLSI); format: cell-based, Akkermansia muciniphila; conditions: for MIC: Akkermansia muciniphila, read-out: Test strain AKK PROBIO MIC, agar dilution method; for Test strain AKK PROBIO Judgment result: judged by CLSI S/I/R criterion of Table 6
Description: Referring to the Clinical and Laboratory Standards Institute (CLSI) method [CLSI. Performance Standards for Antimicrobial Susceptibility Testing; 26th ed. CLSI supplement M100S.
The sensitivity of AKK PROBIO to ampicillin, ceftriaxone, cefotaxime, meropenem, tetracycline, moxifloxacin, and chloramphenicol was determined using an agar dilution method recommended by CLSI. The quality-control strain B. fragilis ATCC 25285 was determined using a micro broth dilution method recommended by CLSI.

[1] = tested on: Bacteroides fragilis ATCC 25285; experiment: Drug sensitivity of quality-control strain, micro broth dilution method (CLSI); format: cell-based; conditions: ATCC25285
Description: Bacteroides fragilis ATCC 25285 was selected as a quality-control strain. The sensitivity of […] to ampicillin, ceftriaxone, cefotaxime, meropenem, tetracycline, moxifloxacin, and chloramphenicol was determined using an agar dilution method recommended by CLSI. The quality-control strain B. fragilis ATCC 25285 was determined using a micro broth dilution method recommended by CLSI.

[2] = tested on: gouty arthritis mouse model; experiment: Gouty arthritis mouse model (sodium urate); format: in vivo, BALB/c mice; conditions: glucosamine sulfate 195 mg/kg. bw intragastric
Description: Mice were randomly divided into 5 groups: a normal group, a model group, a glucosamine sulfate (positive control) group, an Akk low-concentration experimental (Akk-L) group, and an Akk high-concentration experimental (Akk-H) group, with 10 mice in each group. The mice in the normal group and the mice in the model group were intragastrically administered with distilled water at a dosage of 0.1 mL/10 g. bw per day. The mice in the glucosamine sulfate group were intragastrically administered with glucosamine sulfate at a dosage of 195 mg/kg. bw. The mice in the Akk-L group and the mice in the Akk-H group were intragastrically administered with Akk experimental bacteria at a dosage of 10^8 CFU/kg. bw and 10^9 CFU/kg. bw, respectively, for 7 consecutive days. Then, all experimental mice were anesthetized with isoflurane, and then 50 μL of PBS solution was injected into the tibiotarsal joint (ankle joint) of the right paw of the mouse in the normal group. 50 mg of sodium urate was added to 1 mL of PBS buffer to prepare a suspension. 50 μL of suspension was injected into the tibiotarsal joints (ankle joint) of the right paws of the rest of the mice except the mice in the […] to induce gouty arthritis. After the mice woke up, they were intragastrically administrated with a corresponding sample for 7 d still at the dosage of the sample intragastrically administrated in the previous 7 days.
0.1 g of mouse ankle joint tissue was weighed and added into […] containing 0.9 mL of saline and mixing was performed. Subsequently, mixed tissue samples were centrifuged at a speed of 4000 rpm for 10 min to obtain liquid supernatant. Next, related indicators in the liquid supernatant of a tissue homogenate was determined using assay kits for MPO, SOD, GSH, and MDA.
A taken-out whole blood sample of the mouse was centrifuged at 4° C. at 4000 rpm for 10 min to obtain supernatant serum. Serum-related inflammatory indicators were determined using the ELISA kit for IL-6, IL-10, IL-1β, and TNF-α.

[3] = tested on: Salmonella typhimurium TA97a; conditions: TA97a −S9
Description: (§1) Bacterial strains used were Salmonella typhimurium TA97a (National Center for Type Culture Collection NTCC, 506391), S. typhimurium TA98 (NTCC, 506392), S. typhimurium TA100 (NTCC, 506395), S. typhimurium TA1535 (NTCC, 506396), and Escherichia coli WP2 uvrA (CHI Scientific, Co., Ltd., product number: 6-1705). To prepare a drug delivery formulation, distilled water was used as a carrier to prepare a suspension (100 mg/mL) for a test item. […] Therefore, bacteria in samples for the test item were removed by a mechanical means. In the process of mixing the formulation, any soluble components for the test item was dissolved in the carrier, and then, residual bacteria were removed by centrifugation (4° C.; 8000 rpm; 10 min). After centrifugation, liquid supernatant was removed and sterile filtration was performed with a 0.22 μm filter.
(§2) In the confirmatory mutation research, detection was performed at 15.81, 50, 158.1, 500, 1581, and 5000 μg/plate. The maximum concentration was recommended by current regulations and guidelines. […] The survival rate of test bacterial cells was checked through plate experiments in each test. If there is a dosage-related increase in the number of revertants, it is considered that the test item has mutagenicity, and/or a reproducible biology-related positive reaction targeting at least one dosage group occurs in at least one strain with or without metabolic activation.

S. typhimurium TA98 = conditions: TA98 −S9
Description: as §1, §2

[4] = tested on: AOM/DSS-induced colorectal carcinoma mice; experiment: AOM/DSS-induced colorectal carcinoma mice; format: in vivo, C57BL/6 mice
Description: 6-week-old SPF male C57BL/6 mice, purchased from the Chongqing Lepitt Biotechnology Co., Ltd. The mice were raised in a standardized laboratory with room temperature of 25° C.±2° C., relative humidity of 50%±5%, and 12 h of light/12 h of darkness. […] In experiments, mice were given free feeding and water. On the first day of experimental molding, the mice in the model group, the aspirin group, and the AKKP group were injected intraperitoneally with AOM at a dosage of 10 mg/kg, and were fed with 2.5% DSS aqueous solution at weeks 2, 5, and 8. The mice in the normal group and model group were intragastrically administrated with sterile saline; the mice in the aspirin group were intragastrically administrated with an aspirin solution at 67 mg/kg, and the mice in the AKKPL group and the AKKPH group were intragastrically administrated at dosages of 1×10^8 CFU/kg and 1×10^9 CFU/kg, respectively, for 10 consecutive weeks. In the experiments, diet, activity, vigor and hair conditions, and fecal properties of the mice in each group were observed. Each mouse was weighed per week and the body weights were recorded. After the experiments, blood was collected from eyeballs and the mice were sacrificed by removing their vertebrae. The mice were dissected to take out large intestine tissue, spleen tissue, liver tissue, and the kidney tissue for later testing.
After the mice were dissected, the large intestine tissue, the spleen tissue, the liver tissue, and the kidney tissue were taken out and weighed. An organ Index was calculated using a formula, while the colorectum length of the mouse was measured and the colorectal tumorigenesis number of the mouse was recorded. Organ index=organ weight (mg)/mouse body weight (g).
After being fixed in a tissue fixative for 24 h, the rectum of the mouse was transferred into 95% ethanol for dehydration, and then the dehydrated rectum was placed in xylene to replace alcohol in the tissue to make the rectum tissue transparent. Then, the treated rectum was embedded with paraffin. The embedded rectum was sectioned by a microtome, and then a tissue section was stained with H&E and fixed, obtaining a pathologic tissue section, with a thickness of 2 to 3 μm, of the rectum of the mouse, and the pathologic tissue section was observed under the upright microscope.
Whole blood was collected from the eyeballs, and centrifuged at 4000 r/min and 4° C. for 10 min to separate supernatant serum. According to the instruction of the ELISA kit, the levels of IL-1β, IL-6, IFN-γ, iNOS and NF-κB in the serum of the mouse were determined.
About 50 mg colon tissue was taken and cleaned with saline, and the cleaned colon tissue was placed in a homogenization tube containing 6 zirconia beads, and 500 μL TRIzol™ reagent was added to extract RNA in the tissue. The purity and concentration of RNA were determined using the micro-spectrophotometer. […] Then, after cDNA was generated by reverse transcription, a reaction system containing 1 μL cDNA was prepared. Other reagents include 10 μL qPCR SYBR Green Master Mix, […] sterile distilled water, 1 μL forward primer and 1 μL reverse primer. qRT-PCR amplification reaction conditions: 95° C., 10 s, 60° C., 30 s, 40 cycles; 95° C., 15 s, 60° C., 60 s, 95° C., 15 s. Taking Eef2 as an internal reference gene, the mRNA relative expression of each target gene was calculated according to formula 2^−ΔΔCt.

[5] = qRT-PCR, aspirin 67 mg/kg or AKKPH 1×10^9 CFU/kg, vs model group, P<0.05
[6] = qRT-PCR, vs model group, P<0.05

## CC1(C)S[C@@H]2[C@H](NC(=O)[C@H](N)c3ccccc3)C(=O)N2[C@H]1C(=O)O [Ampicillin, ampicillin]
AKK PROBIO
  MIC: < 0.25 µg/mL
  Test strain AKK PROBIO Judgment result: Sensitive
AKK PROBIO; listed as ampicillin
  Test strain AKK PROBIO Judgment result: sensitive
[1]
  MIC: 64 µg/mL (≈ 183 µM)

## CO/N=C(\C(=O)N[C@@H]1C(=O)N2C(C(=O)O)=C(COC(C)=O)CS[C@H]12)c1csc(N)n1 [Cefotaxime, cefotaxime]
AKK PROBIO
  MIC: 16 µg/mL (≈ 35.1 µM)
  Test strain AKK PROBIO Judgment result: Sensitive
AKK PROBIO; listed as cefotaxime
  Test strain AKK PROBIO Judgment result: sensitive
[1]
  MIC: 32 µg/mL (≈ 70.3 µM)

## CO/N=C(\C(=O)N[C@@H]1C(=O)N2C(C(=O)O)=C(CSc3nc(=O)c(=O)[nH]n3C)CS[C@H]12)c1csc(N)n1 [Ceftriaxone, ceftriaxone]
AKK PROBIO
  MIC: 8 µg/mL (≈ 14.4 µM)
  Test strain AKK PROBIO Judgment result: Sensitive
AKK PROBIO; listed as ceftriaxone
  Test strain AKK PROBIO Judgment result: sensitive
[1]
  MIC: 128 µg/mL (≈ 231 µM)

## O=C(N[C@H](CO)[C@H](O)c1ccc([N+](=O)[O-])cc1)C(Cl)Cl [Chloramphenicol, chloramphenicol]
AKK PROBIO
  MIC: 4 µg/mL (≈ 12.4 µM)
  Test strain AKK PROBIO Judgment result: Sensitive
AKK PROBIO; listed as chloramphenicol
  Test strain AKK PROBIO Judgment result: sensitive
[1]
  MIC: 8 µg/mL (≈ 24.8 µM)

## N[C@H]1C(O)O[C@H](CO)[C@@H](O)[C@@H]1O.O=S(=O)(O)O (stereo partly shown) [Glucosamine sulfate, glucosamine sulfate, reference compound]
[2]; model group 1.07, normal 6.07
  SOD in mouse ankle joint tissue: 2.50 ± 0.40 U/mg
[2]; model group 2.49, normal 0.38
  MPO in mouse ankle joint tissue: 1.82 ± 0.17 U/g
[2]; model group 18.06, normal 47.05
  GSH in mouse ankle joint tissue: 31.14 ± 1.66 mg/g
[2]; model group 24.97, normal 12.66
  IL-1β in serum of mice: 21.15 ± 1.22 ng/mL
[2]; model group 26.69, normal 5.74
  MDA in mouse ankle joint tissue: 20.31 ± 1.52 nmol/mg
[2]; model group 36.03, normal 27.20
  IL-10 in serum of mice: 32.84 ± 1.94 ng/mL
[2]; model group 90.05, normal 52.97
  IL-6 in serum of mice: 66.85 ± 4.90 ng/mL
[2]; model group 249.41, normal 117.58
  TNF-α in serum of mice: 204.43 ± 15.32 ng/mL

## C[C@@H](O)[C@H]1C(=O)N2C(C(=O)O)=C(S[C@@H]3CN[C@H](C(=O)N(C)C)C3)[C@H](C)[C@H]12 [Meropenem, meropenem]
AKK PROBIO
  MIC: 0.125 µg/mL (≈ 0.326 µM)
  Test strain AKK PROBIO Judgment result: Sensitive
AKK PROBIO; listed as meropenem
  Test strain AKK PROBIO Judgment result: sensitive
[1]
  MIC: 0.25 µg/mL (≈ 0.652 µM)

## CN(C)c1ccc(N=NS(=O)(=O)[O-])cc1.[Na+] [Positive control 1, fenaminosulf]
[3]
  Number of revertant mutants per plate (mean ± standard deviation): 1169.4
S. typhimurium TA98
  Number of revertant mutants per plate (mean ± standard deviation): 1525.00

## CN(C)[C@@H]1C(O)=C(C(N)=O)C(=O)[C@@]2(O)C(O)=C3C(=O)c4c(O)cccc4[C@@](C)(O)[C@H]3C[C@@H]12 [Tetracy cline, tetracycline]
AKK PROBIO
  MIC: 2 µg/mL (≈ 4.5 µM)
[1]
  MIC: 0.5 µg/mL (≈ 1.13 µM)

## CC(=O)Oc1ccccc1C(=O)O [aspirin, reference compound]
[4]; AOM/DSS mice, intragastric 10 weeks, aspirin 67 mg/kg, AKKP 1×10^8 and 1×10^9 CFU/kg
  body weight loss: alleviate the body weight loss in the mice to a certain extent
[4]; ELISA, vs model group
  content of IL-6 in serum: reduced
[4]; ELISA, vs model group, P<0.05
  content of IFN-γ in serum: reduced
  content of IL-1β in serum: lower than that in the model group
  content of NF-κB in serum: reduced
  content of iNOS in serum: reduced
[4]; aspirin 67 mg/kg intragastric 10 weeks, model group 4.34±0.35, normal 2.81±0.34
  colorectum weight/length (ratio): 3.17±0.50
[4]; aspirin, AKKPL and AKKPH groups
  pathological morphology of rectum tissue (H&E): no obvious erosion found in the rectal mucosa
[4]; between the five groups, P>0.05
  kidney index / renal tissue: no significant difference
[4]; [5]
  mRNA relative expression of IκBβ in colon tissue: significantly reduced
  mRNA relative expression of p50 in colon tissue: significantly reduced
[4]; [6]
  mRNA relative expression of Bid in colon tissue: significantly increased
  mRNA relative expression of Bim in colon tissue: significantly increased
  mRNA relative expression of caspase-9 in colon tissue: significantly increased
  mRNA relative expression of p52 in colon tissue: significantly reduced
  mRNA relative expression of p65 in colon tissue: significantly reduced
[4]; vs model group, P<0.05
  colorectal tumorigenesis number: significantly smaller
  liver weight (liver index): reduced
  spleen weight (spleen index): reduced
[4]; vs model group, P<0.05, aspirin 67 mg/kg, AKKP 1×10^8 and 1×10^9 CFU/kg, 10 weeks
  colorectum length: relatively long
